# Patent US20250163104A1, “MACROCYCLIC IMMUNOMODULATORS” (priority 2021, published 2025)
# Where a SMILES comes first, the peptide text is derived from it. Bridges are numbered along the chain shown (N, C = ends). [ ]: non-standard residue; d: D form. The star is where a group is joined. Bip = N[C@@H](Cc1ccc(-c2ccccc2)cc1)C(=O)O; Cha = N[C@@H](CC1CCCCC1)C(=O)O; Carboxymethyl = O=C(O)C*; Nle = CCCC[C@H](N)C(=O)O; Orn = NCCC[C@H](N)C(=O)O; Dab = NCC[C@H](N)C(=O)O; Dap = NC[C@H](N)C(=O)O
# Biological target: T1, human PD-1 / PD-L1-Ig binding on Jurkat cell line over-expressing human PD-1 (Jurkat-PD-1) (Homo sapiens, UniProt Q15116)
# T1 construct: expressed in transfected cells; host or cells: Jurkat
# Assay: Jurkat-PD-1 Cell Binding High-Content Screening Assay (CBA)
# Type: cell-based
# Conditions: Jurkat-PD-1 cells, PE-labeled PD-L1-Ig 20 nM final; read-out: Jurkat HPD1_PDL1 IC50
# How it was run: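 Compounds were preincubated with Jurkat-hPD-1 cells in DMEM plus 10% fetal calf serum for 2 h at 37° C. Phycoerythrin-labeled PD-L1-Ig (20 nM final) was then added for 1 hour. Cells were fixed in 4% paraformaldehyde with Hoechst 33342, and bound fluorescence was quantified by high-content imaging.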
# T1 sequence (Q15116 25-288): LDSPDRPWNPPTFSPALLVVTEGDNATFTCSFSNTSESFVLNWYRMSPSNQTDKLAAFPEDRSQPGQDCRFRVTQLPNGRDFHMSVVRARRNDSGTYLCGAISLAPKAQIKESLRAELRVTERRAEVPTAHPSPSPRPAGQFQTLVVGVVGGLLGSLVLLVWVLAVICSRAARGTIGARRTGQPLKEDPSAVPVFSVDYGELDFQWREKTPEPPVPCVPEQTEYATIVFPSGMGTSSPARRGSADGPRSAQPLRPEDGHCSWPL
row,SMILES,IC50
1,CC(C)C[C@@H]1NC(=O)[C@H](CCCCN)NC(=O)[C@@H](CC(C)C)NC(=O)[C@H](CCN)NC(=O)[C@H](Cc2cnc[nH]2)NC(=O)[C@H](Cc2ccc(-c3ccccc3)cc2)NC(=O)[C@H](C(C)C)NC(=O)[C@H](Cc2c[nH]c3ccccc23)NC(=O)[C@H](CC(=O)O)NC(=O)[C@H](Cc2ccc(O)cc2)NC(=O)[C@H](CC(N)=O)NC(=O)CSC[C@@H](C(=O)N[C@@H](C)C(N)=O)NC(=O)[C@H](CO)NC(=O)[C@H](C(C)C)NC1=O [Compound 1138] ({CH2CO}-NYDWV[Bip]H[Dab][dL]KLVSCA-NH2; thioether N-14),19.3 nM
2,CC[C@H](C)[C@@H]1NC(=O)[C@H](Cc2ccc(-c3ccccc3)cc2)NC(=O)[C@H](C(C)C)NC(=O)[C@H](Cc2c[nH]c3ccccc23)NC(=O)[C@H](CC(=O)O)NC(=O)[C@H](Cc2ccc(O)cc2)NC(=O)[C@H](CN)NC(=O)CSC[C@@H](C(=O)N[C@@H](C)C(N)=O)NC(=O)[C@H]([C@@H](C)O)NC(=O)[C@H](C(C)C)NC(=O)[C@H](CC(C)C)NC(=O)[C@H](CCCNC(=N)N)NC(=O)[C@@H](CC(C)C)NC(=O)[C@H](CCCN)NC1=O [Compound 1141] ({CH2CO}-[Dap]YDWV[Bip]I[Orn][dL]RLVTCA-NH2; thioether N-14),30.6 nM
3,CC[C@H](C)[C@@H]1NC(=O)[C@H](Cc2ccc(-c3ccccc3)cc2)NC(=O)[C@H](C(C)C)NC(=O)[C@H](Cc2c[nH]c3ccccc23)NC(=O)[C@H](CC(=O)O)NC(=O)[C@H](Cc2ccc(O)cc2)NC(=O)[C@H](Cc2ccc(OCC(=O)O)cc2)NC(=O)CSC[C@@H](C(=O)N[C@@H](C)C(N)=O)NC(=O)[C@H]([C@@H](C)O)NC(=O)[C@H](C(C)C)NC(=O)[C@H](CC(C)C)NC(=O)[C@H](CCCNC(=N)N)NC(=O)[C@@H](CC(C)C)NC(=O)[C@H](CCCN)NC1=O [Compound 1142] ({CH2CO}-Y(Carboxymethyl)YDWV[Bip]I[Orn][dL]RLVTCA-NH2; thioether N-14),19.6 nM
4,CC[C@H](C)[C@@H]1NC(=O)[C@H](Cc2ccc(-c3ccccc3)cc2)NC(=O)[C@H](C(C)C)NC(=O)[C@H](Cc2c[nH]c3ccccc23)NC(=O)[C@H](CC(=O)O)NC(=O)[C@H](Cc2ccc(O)cc2)NC(=O)[C@H](Cc2ccccc2)NC(=O)CSC[C@@H](C(=O)N[C@@H](C)C(N)=O)NC(=O)[C@H]([C@@H](C)O)NC(=O)[C@H](C(C)C)NC(=O)[C@H](CC(C)C)NC(=O)[C@H](CCCNC(=N)N)NC(=O)[C@@H](CC(C)C)NC(=O)[C@H](CCCN)NC1=O [Compound 1144] ({CH2CO}-FYDWV[Bip]I[Orn][dL]RLVTCA-NH2; thioether N-14),19.2 nM
5,CC[C@H](C)[C@@H]1NC(=O)[C@H](Cc2ccc(-c3ccccc3)cc2)NC(=O)[C@H](C(C)C)NC(=O)[C@H](Cc2c[nH]c3ccccc23)NC(=O)[C@H](CC(=O)O)NC(=O)[C@H](Cc2ccc(O)cc2)NC(=O)[C@H](CN)NC(=O)CSC[C@@H](C(=O)N[C@@H](C)C(N)=O)NC(=O)[C@H]([C@@H](C)O)NC(=O)[C@H](C(C)C)NC(=O)[C@H](CC2CCCCC2)NC(=O)[C@H](CCCNC(=N)N)NC(=O)[C@@H](CC(C)C)NC(=O)[C@H](CCCN)NC1=O [Compound 1145] ({CH2CO}-[Dap]YDWV[Bip]I[Orn][dL]R[Cha]VTCA-NH2; thioether N-14),8.7 nM
6,CC[C@H](C)[C@@H]1NC(=O)[C@H](Cc2ccc(-c3ccccc3)cc2)NC(=O)[C@H](C(C)C)NC(=O)[C@H](Cc2c[nH]c3ccccc23)NC(=O)[C@H](CC(=O)O)NC(=O)[C@H](Cc2ccc(O)cc2)NC(=O)[C@H](CC(N)=O)NC(=O)CSC[C@@H](C(=O)N[C@@H](C)C(N)=O)NC(=O)[C@H]([C@@H](C)O)NC(=O)[C@H](C(C)C)NC(=O)[C@H](CC2CCCCC2)NC(=O)[C@H](CCCNC(=N)N)NC(=O)[C@@H](CC(C)C)NC(=O)[C@H](CCCN)NC1=O [Compound 1147] ({CH2CO}-NYDWV[Bip]I[Orn][dL]R[Cha]VTCA-NH2; thioether N-14),22.7 nM
7,CCCC[C@@H]1NC(=O)[C@H](CCCNC(=N)N)NC(=O)[C@@H](CC(C)C)NC(=O)[C@H](CCCN)NC(=O)[C@H]([C@@H](C)CC)NC(=O)[C@H](Cc2ccc(-c3ccccc3)cc2)NC(=O)[C@H](C(C)C)NC(=O)[C@H](Cc2c[nH]c3ccccc23)NC(=O)[C@H](CC(=O)O)NC(=O)[C@H](Cc2ccc(O)cc2)NC(=O)[C@H](CN)NC(=O)CSC[C@@H](C(=O)N[C@@H](C)C(N)=O)NC(=O)[C@H]([C@@H](C)O)NC(=O)[C@H](C(C)C)NC1=O [Compound 1149] ({CH2CO}-[Dap]YDWV[Bip]I[Orn][dL]R[Nle]VTCA-NH2; thioether N-14),47 nM
8,CCCC[C@@H]1NC(=O)[C@H](CCCNC(=N)N)NC(=O)[C@@H](CC(C)C)NC(=O)[C@H](CCCN)NC(=O)[C@H]([C@@H](C)CC)NC(=O)[C@H](Cc2ccc(-c3ccccc3)cc2)NC(=O)[C@H](C(C)C)NC(=O)[C@H](Cc2c[nH]c3ccccc23)NC(=O)[C@H](CC(=O)O)NC(=O)[C@H](Cc2ccc(O)cc2)NC(=O)[C@H](Cc2ccc(OCC(=O)O)cc2)NC(=O)CSC[C@@H](C(=O)N[C@@H](C)C(N)=O)NC(=O)[C@H]([C@@H](C)O)NC(=O)[C@H](C(C)C)NC1=O [Compound 1150] ({CH2CO}-Y(Carboxymethyl)YDWV[Bip]I[Orn][dL]R[Nle]VTCA-NH2; thioether N-14),48.9 nM
9,CCCC[C@@H]1NC(=O)[C@H](CCCNC(=N)N)NC(=O)[C@@H](CC(C)C)NC(=O)[C@H](CCCN)NC(=O)[C@H]([C@@H](C)CC)NC(=O)[C@H](Cc2ccc(-c3ccccc3)cc2)NC(=O)[C@H](C(C)C)NC(=O)[C@H](Cc2c[nH]c3ccccc23)NC(=O)[C@H](CC(=O)O)NC(=O)[C@H](Cc2ccc(O)cc2)NC(=O)[C@H](CC(N)=O)NC(=O)CSC[C@@H](C(=O)N[C@@H](C)C(N)=O)NC(=O)[C@H]([C@@H](C)O)NC(=O)[C@H](C(C)C)NC1=O [Compound 1151] ({CH2CO}-NYDWV[Bip]I[Orn][dL]R[Nle]VTCA-NH2; thioether N-14),70.9 nM
10,CCCC[C@@H]1NC(=O)[C@H](CCCNC(=N)N)NC(=O)[C@@H](CC(C)C)NC(=O)[C@H](CCCN)NC(=O)[C@H]([C@@H](C)CC)NC(=O)[C@H](Cc2ccc(-c3ccccc3)cc2)NC(=O)[C@H](C(C)C)NC(=O)[C@H](Cc2c[nH]c3ccccc23)NC(=O)[C@H](CC(=O)O)NC(=O)[C@H](Cc2ccc(O)cc2)NC(=O)[C@H](Cc2ccccc2)NC(=O)CSC[C@@H](C(=O)N[C@@H](C)C(N)=O)NC(=O)[C@H]([C@@H](C)O)NC(=O)[C@H](C(C)C)NC1=O [Compound 1152] ({CH2CO}-FYDWV[Bip]I[Orn][dL]R[Nle]VTCA-NH2; thioether N-14),64.7 nM

# Now from value to molecule:
row,IC50,SMILES
1,44.4 nM,CC(C)C[C@@H]1NC(=O)[C@H](CCCCN)NC(=O)[C@@H](CC(C)C)NC(=O)[C@H](CCN)NC(=O)[C@H](Cc2cnc[nH]2)NC(=O)[C@H](Cc2ccc(-c3ccccc3)cc2)NC(=O)[C@H](C(C)C)NC(=O)[C@H](Cc2c[nH]c3ccccc23)NC(=O)[C@H](CC(=O)O)NC(=O)[C@H](Cc2ccc(O)cc2)NC(=O)[C@H](CC(N)=O)NC(=O)CSC[C@@H](C(=O)NCC(N)=O)NC(=O)[C@H](CO)NC(=O)[C@H](C(C)C)NC1=O [Compound 1139] ({CH2CO}-NYDWV[Bip]H[Dab][dL]KLVSCG-NH2; thioether N-14)
2,57.7 nM,CC(C)C[C@@H]1NC(=O)[C@H](CCCCN)NC(=O)[C@@H](CC(C)C)NC(=O)[C@H](CCN)NC(=O)[C@H](Cc2cnc[nH]2)NC(=O)[C@H](Cc2ccc(-c3ccccc3)cc2)NC(=O)[C@H](C(C)C)NC(=O)[C@H](Cc2c[nH]c3ccccc23)NC(=O)[C@H](CC(=O)O)NC(=O)[C@H](Cc2ccc(O)cc2)NC(=O)[C@H](CC(N)=O)NC(=O)CSC[C@@H](C(=O)NCC(N)=O)NC(=O)[C@H]([C@@H](C)O)NC(=O)[C@H](C(C)C)NC1=O [Compound 1140] ({CH2CO}-NYDWV[Bip]H[Dab][dL]KLVTCG-NH2; thioether N-14)
3,15.8 nM,CC[C@H](C)[C@@H]1NC(=O)[C@H](Cc2ccc(-c3ccccc3)cc2)NC(=O)[C@H](C(C)C)NC(=O)[C@H](Cc2c[nH]c3ccccc23)NC(=O)[C@H](CC(=O)O)NC(=O)[C@H](Cc2ccc(O)cc2)NC(=O)[C@H](CC(N)=O)NC(=O)CSC[C@@H](C(=O)N[C@@H](C)C(N)=O)NC(=O)[C@H]([C@@H](C)O)NC(=O)[C@H](C(C)C)NC(=O)[C@H](CC(C)C)NC(=O)[C@H](CCCNC(=N)N)NC(=O)[C@@H](CC(C)C)NC(=O)[C@H](CCCN)NC1=O [Compound 1143] ({CH2CO}-NYDWV[Bip]I[Orn][dL]RLVTCA-NH2; thioether N-14)
4,42.3 nM,CC[C@H](C)[C@@H]1NC(=O)[C@H](Cc2ccc(-c3ccccc3)cc2)NC(=O)[C@H](C(C)C)NC(=O)[C@H](Cc2c[nH]c3ccccc23)NC(=O)[C@H](CC(=O)O)NC(=O)[C@H](Cc2ccc(O)cc2)NC(=O)[C@H](Cc2ccc(OCC(=O)O)cc2)NC(=O)CSC[C@@H](C(=O)N[C@@H](C)C(N)=O)NC(=O)[C@H]([C@@H](C)O)NC(=O)[C@H](C(C)C)NC(=O)[C@H](CC2CCCCC2)NC(=O)[C@H](CCCNC(=N)N)NC(=O)[C@@H](CC(C)C)NC(=O)[C@H](CCCN)NC1=O [Compound 1146] ({CH2CO}-Y(Carboxymethyl)YDWV[Bip]I[Orn][dL]R[Cha]VTCA-NH2; thioether N-14)
5,51 nM,CC[C@H](C)[C@@H]1NC(=O)[C@H](Cc2ccc(-c3ccccc3)cc2)NC(=O)[C@H](C(C)C)NC(=O)[C@H](Cc2c[nH]c3ccccc23)NC(=O)[C@H](CC(=O)O)NC(=O)[C@H](Cc2ccc(O)cc2)NC(=O)[C@H](Cc2ccccc2)NC(=O)CSC[C@@H](C(=O)N[C@@H](C)C(N)=O)NC(=O)[C@H]([C@@H](C)O)NC(=O)[C@H](C(C)C)NC(=O)[C@H](CC2CCCCC2)NC(=O)[C@H](CCCNC(=N)N)NC(=O)[C@@H](CC(C)C)NC(=O)[C@H](CCCN)NC1=O [Compound 1148] ({CH2CO}-FYDWV[Bip]I[Orn][dL]R[Cha]VTCA-NH2; thioether N-14)
